Test results from patent US20250197387A1, “BCL-XL DEGRADERS AND USES THEREOF” (Kymera Therapeutics, Inc., priority 2021, published 2025).

Target: T1, BCL-XL (Homo sapiens, UniProt Q07817)
T1 construct: endogenous in cells; host or cells: MOLT-4
Test: Bcl-xL ELISA degradation in MOLT-4 cells, 6 h
Assay type: cell-based
Settings: for DC50: read-out: Bcl-xL ELISA in MOLT-4 degradation 6 h: Mean external-Abs DC50
Protocol: The letter codes for BCL-XL DC50 include: A (<0.01 μM); B (0.01-0.1 μM); C (>[…]); D (>0.5-1.0 μM); and E (>1.0 μM). The letter codes for Dmax % include A (>75%); B (50 to 75%); C (<50%).

T1 sequence (Q07817 whole entry): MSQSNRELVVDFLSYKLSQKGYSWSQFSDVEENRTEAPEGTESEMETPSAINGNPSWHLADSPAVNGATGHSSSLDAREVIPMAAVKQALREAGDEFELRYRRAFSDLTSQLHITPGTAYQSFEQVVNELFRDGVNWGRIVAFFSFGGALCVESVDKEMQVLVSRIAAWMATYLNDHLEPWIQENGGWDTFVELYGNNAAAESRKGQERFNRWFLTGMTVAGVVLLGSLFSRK

`Cc1cc(N(C)c2ccc(-c3cnn(CC4CCCCC4)c3C)c(C(=O)NS(=O)(=O)c3ccc(N4CCC(C(=O)N[C@H](C(=O)N5C[C@H](O)C[C@H]5C(=O)N[C@@H](C)c5ccc(-c6scnc6C)cc5)C(C)(C)C)CC4)cc3)n2)nnc1Nc1nc2ccccc2s1` [I-244] was tested, and the Dmax was greater than 75% and the DC50 was 10 to 100 nM.
In the case of `Cc1ncsc1-c1ccc(CNC(=O)[C@@H]2C[C@@H](O)CN2C(=O)[C@@H](NC(=O)C2(F)CC2)C(C)(C)C)c(N2CCC(N3CCC(NC(=O)c4nc(N5CCc6cccc(C(=O)Nc7nc8ccccc8s7)c6C5)ccc4-c4cnn(CC5CCCCC5)c4C)CC3)CC2)c1` [I-270], the Dmax was less than 50% and the DC50 was greater than 1000 nM.
Work on `Cc1ncsc1-c1ccc([C@H](C)NC(=O)[C@@H]2C[C@@H](O)CN2C(=O)[C@@H](NC(=O)N2CCN(CC#Cc3ccc(OCCCc4sc(N5CCc6cccc(C(=O)Nc7nc8ccccc8s7)c6C5)nc4C(=O)O)c(F)c3)CC2)C(C)(C)C)cc1` [I-73] yielded a Dmax of less than 50%.
`Cc1ncsc1-c1ccc([C@H](C)NC(=O)[C@@H]2C[C@@H](O)CN2C(=O)[C@@H](NC(=O)N2CCC3(CCN(CC#Cc4ccc(OCCCc5sc(N6CCc7cccc(C(=O)Nc8nc9ccccc9s8)c7C6)nc5C(=O)O)c(F)c4)CC3)CC2)C(C)(C)C)cc1` [I-71] showed a Dmax of less than 50%.
In the case of `Cc1cc(C(C(=O)N2C[C@H](O)C[C@H]2C(=O)NCc2ccc(-c3scnc3C)cc2OCCN2CCN(CC[C@H](CSc3ccccc3)Nc3ccc(S(=O)(=O)NC(=O)c4ccc(N5CCN(CC6=C(c7ccc(Cl)cc7)CCC(C)(C)C6)CC5)cc4)cc3S(=O)(=O)C(F)(F)F)CC2)C(C)C)on1` (some centres unmarked) [I-282], the Dmax was 50 to 75% and the DC50 was 100 to 500 nM.
Molecule `Cc1ncsc1-c1ccc([C@H](C)NC(=O)[C@@H]2C[C@@H](O)CN2C(=O)[C@@H](NC(=O)N2CCN(c3ccc(S(=O)(=O)NC(=O)c4nc(N5CCc6cccc(C(=O)Nc7nc8ccccc8s7)c6C5)ccc4-c4cnn(CC5CCCCC5)c4C)cc3)CC2)C(C)(C)C)cc1` [I-261] has a Dmax greater than 75% and a DC50 of 10 to 100 nM.
For `Cc1ncsc1-c1ccc([C@H](C)NC(=O)[C@@H]2C[C@@H](O)CN2C(=O)[C@@H](NC(=O)C2CCN(c3ccc(S(=O)(=O)NC(=O)c4nc(N5CCc6cccc(C(=O)Nc7nc8ccccc8s7)c6C5)ccc4-c4cnn(CC5CCCCC5)c4C)c(Cl)c3)CC2)C(C)(C)C)cc1` [I-276], the Dmax was greater than 75% and the DC50 was 10 to 100 nM.
`Cc1ncsc1-c1ccc([C@H](C)NC(=O)[C@@H]2C[C@@H](O)CN2C(=O)[C@H](c2cc(N3CC4(CN(c5ccc(S(=O)(=O)NC(=O)c6nc(N7CCc8cccc(C(=O)Nc9nc%10ccccc%10s9)c8C7)ccc6-c6cnn(CC7CCCCC7)c6C)cc5)C4)C3)no2)C(C)C)cc1` [I-225] gave a Dmax of 50 to 75% and a DC50 of 10 to 100 nM.
With `Cc1ncsc1-c1ccc([C@H](C)NC(=O)[C@@H]2C[C@@H](O)CN2C(=O)[C@@H](NC(=O)C2CCN(c3ccc(S(=O)(=O)NC(=O)c4nc(N5CCc6cccc(C(=O)Nc7nc8ccccc8s7)c6C5)ccc4-c4cnn(CC5CCOCC5)c4C)cc3)CC2)C(C)(C)C)cc1` [I-260] the Dmax was 50 to 75% and the DC50 was 100 to 500 nM.
`Cc1ncsc1-c1ccc([C@H](C)NC(=O)[C@@H]2C[C@@H](O)CN2C(=O)[C@@H](NC(=O)C2CCN(c3ccc(S(=O)(=O)NC(=O)c4nc(N5CCc6cccc(C(=O)Nc7nc8ccccc8s7)c6C5)ccc4-c4cnn(CC(C)C)c4C)cc3)CC2)C(C)(C)C)cc1` [I-240] was tested, and the Dmax was greater than 75% and the DC50 was 10 to 100 nM.
Work on `Cc1cc([C@@H](C(=O)N2C[C@H](O)C[C@H]2C(=O)NCc2ccc(-c3scnc3C)cc2OCCCN2CCN(C(=O)c3nc(N4CCc5cccc(C(=O)Nc6nc7ccccc7s6)c5C4)ccc3-c3cnn(CC4CCCCC4)c3C)CC2)C(C)C)on1` [I-268] yielded a Dmax greater than 75% and a DC50 of less than 10 nM.
`Cc1ncsc1-c1ccc([C@H](C)NC(=O)[C@@H]2C[C@@H](O)CN2C(=O)[C@@H](NC(=O)C2CCN(c3ncc(S(=O)(=O)NC(=O)c4nc(N5CCc6cccc(C(=O)Nc7nc8ccccc8s7)c6C5)ccc4-c4cnn(CC5CCCCC5)c4C)cn3)CC2)C(C)(C)C)cc1` [I-250] gave a Dmax greater than 75% and a DC50 of 10 to 100 nM.
For `Cc1ncsc1-c1ccc(CNC(=O)N2C[C@@H](O)CC2C(=O)[C@@H](NC(=O)C2(F)CC2)C(C)(C)C)c(O[C@H]2C[C@H](N3CCC(NC(=O)c4nc(N5CCc6cccc(C(=O)Nc7nc8ccccc8s7)c6C5)ccc4-c4cnn(CC5CCCCC5)c4C)CC3)C2)c1` (some centres unmarked) [I-269], the Dmax was less than 50% and the DC50 was greater than 1000 nM.
With `Cc1ncsc1-c1ccc(CNC(=O)[C@@H]2C[C@@H](O)CN2C(=O)[C@@H](NC(=O)C2CCN(c3ccc(S(=O)(=O)NC(=O)c4nc(N5CCc6cccc(C(=O)Nc7nc8ccccc8s7)c6C5)ccc4-c4cnn(CC5CCCCC5)c4C)cc3)CC2)C(C)(C)C)cc1` [I-252] the Dmax was greater than 75% and the DC50 was 10 to 100 nM.
`Cc1ncsc1-c1ccc([C@H](C)NC(=O)[C@@H]2C[C@@H](O)CN2C(=O)[C@@H](NC(=O)C2CCN(c3ccc(S(=O)(=O)NC(=O)c4nc(N5CCc6cccc(C(=O)Nc7nc8ccccc8s7)c6C5)ccc4-c4cnn(CC5(CCCN6CCN(C)CC6)CCCCC5)c4C)cc3)CC2)C(C)(C)C)cc1` [I-256] showed a Dmax of 50 to 75% and a DC50 of 100 to 500 nM.
`C#Cc1ccc([C@H](CO)NC(=O)[C@@H]2C[C@@H](O)CN2C(=O)C(c2cc(OC3CCN(CCCS(=O)(=O)NC(=O)c4nc(N5CCc6cccc(C(=O)Nc7nc8ccccc8s7)c6C5)ccc4-c4cnn(CC5CCCCC5)c4C)CC3)no2)C(C)C)cc1` (some centres unmarked) [I-228] showed a Dmax of 50 to 75% and a DC50 of 100 to 500 nM.
`C#Cc1ccc([C@H](C)NC(=O)[C@@H]2C[C@@H](O)CN2C(=O)[C@@H](NC(=O)C2CCN(c3ccc(S(=O)(=O)NC(=O)c4nc(N5CCc6cccc(C(=O)Nc7nc8ccccc8s7)c6C5)ccc4-c4cnn(CC5CCCCC5)c4C)cc3)CC2)C(C)(C)C)cc1` [I-253] was tested, and the Dmax was greater than 75% and the DC50 was less than 10 nM.
`Cc1ncsc1-c1ccc([C@H](C)NC(=O)[C@@H]2C[C@@H](O)CN2C(=O)[C@H](c2cc(N3CC(N4CCC(NC(=O)c5nc(N6CCc7cccc(C(=O)Nc8nc9ccccc9s8)c7C6)ccc5-c5cnn(CC6CCCCC6)c5C)CC4)C3)no2)C(C)C)cc1` [I-235] showed a Dmax of less than 50%.
`Cc1cc(S(=O)(=O)NC(=O)c2nc(N3CCc4cccc(C(=O)Nc5nc6ccccc6s5)c4C3)ccc2-c2cnn(CC3CCCCC3)c2C)ccc1N1CCC(C(=O)N[C@H](C(=O)N2C[C@H](O)C[C@H]2C(=O)N[C@@H](C)c2ccc(-c3scnc3C)cc2)C(C)(C)C)CC1` [I-273] was tested, and the Dmax was greater than 75% and the DC50 was less than 10 nM.
With `C#Cc1ccc(CNC(=O)[C@@H]2C[C@@H](O)CN2C(=O)[C@@H](c2cc(N3CCN(c4ccc(S(=O)(=O)NC(=O)c5nc(N6CCc7cccc(C(=O)Nc8nc9ccccc9s8)c7C6)ccc5-c5cnn(CC6CCCCC6)c5C)cc4)CC3)no2)C(C)C)c(OC)c1` [I-263] the Dmax was 50 to 75% and the DC50 was 10 to 100 nM.
For `C#Cc1ccc([C@H](CO)NC(=O)[C@@H]2C[C@@H](O)CN2C(=O)[C@@H](NC(=O)C2CCN(c3ccc(S(=O)(=O)NC(=O)c4nc(N(C)c5cc(C)c(Nc6nc7ccccc7s6)nn5)ccc4-c4cnn(CC5(CC)CC6CC(C)CC(C6)C5)c4C)cc3)CC2)C(C)(C)C)cc1` (some centres unmarked) [I-245], the Dmax was greater than 75% and the DC50 was 10 to 100 nM.
Work on `Cc1ncsc1-c1ccc([C@H](C)NC(=O)[C@@H]2C[C@@H](O)CN2C(=O)[C@@H](NC(=O)CCCCN(C)CCCS(=O)(=O)NC(=O)c2nc(N3CCc4cccc(C(=O)Nc5nc6ccccc6s5)c4C3)ccc2-c2cnn(CC3CCCCC3)c2C)C(C)(C)C)cc1` [I-232] yielded a Dmax of 50 to 75% and a DC50 of 100 to 500 nM.
Work on `Cc1ncsc1-c1ccc(CNC(=O)[C@@H]2C[C@@H](O)CN2C(=O)[C@@H](NC(=O)C2(F)CC2)C(C)(C)C)c(OCCCC(=O)N2CCN(CC#Cc3ccc(OCCCc4sc(N5CCc6cccc(C(=O)Nc7nc8ccccc8s7)c6C5)nc4C(=O)O)c(F)c3)CC2)c1` [I-223] yielded a Dmax of 50 to 75% and a DC50 of 10 to 100 nM.
With `Cc1ncsc1-c1ccc(CNC(=O)[C@@H]2C[C@@H](O)CN2C(=O)[C@@H](NC(=O)C2(F)CC2)C(C)(C)C)c(OC2CCN(CC[C@H](CSc3ccccc3)Nc3ccc(S(=O)(=O)NC(=O)c4ccc(N5CCN(CC6=C(c7ccc(Cl)cc7)CCC(C)(C)C6)CC5)cc4)cc3S(=O)(=O)C(F)(F)F)CC2)c1` [I-281] the Dmax was less than 50%.
With `C#Cc1ccc(CNC(=O)[C@@H]2C[C@@H](O)CN2C(=O)[C@@H](NC(=O)C2CCN(c3ccc(S(=O)(=O)NC(=O)c4nc(N5CCc6cccc(C(=O)Nc7nc8ccccc8s7)c6C5)ccc4-c4cnn(CC5CCCCC5)c4C)cc3)CC2)C(C)(C)C)c(OC)c1` [I-254] the Dmax was greater than 75% and the DC50 was less than 10 nM.
`Cc1ncsc1-c1ccc([C@H](C)NC(=O)[C@@H]2C[C@@H](O)CN2C(=O)C(c2cc(N3CCC(CN4CCC(NC(=O)c5nc(N6CCc7cccc(C(=O)Nc8nc9ccccc9s8)c7C6)ccc5-c5cnn(CC6CCCCC6)c5C)CC4)CC3)no2)C(C)C)cc1` (some centres unmarked) [I-238] showed a Dmax of less than 50%.
In the case of `C#Cc1ccc(CNC(=O)[C@@H]2C[C@@H](O)CN2C(=O)[C@@H](c2cc(N3CCN(c4ccc(S(=O)(=O)NC(=O)c5nc(N6CCc7cccc(C(=O)Nc8nc9ccccc9s8)c7C6)ccc5-c5cnn(CC6CCCCC6)c5C)cc4)CC3)no2)C(C)C)cc1` [I-262], the Dmax was greater than 75% and the DC50 was less than 10 nM.
`C#Cc1ccc(CNC(=O)[C@@H]2C[C@@H](O)CN2C(=O)[C@@H](NC(=O)C2CCN(c3ccc(S(=O)(=O)NC(=O)c4nc(N5CCc6cccc(C(=O)Nc7nc8ccccc8s7)c6C5)ccc4-c4cnn(CC5CCCCC5)c4C)cc3)CC2)C(C)(C)C)c(OCCO)c1` [I-259] gave a Dmax greater than 75% and a DC50 of 10 to 100 nM.
Work on `Cc1cc([C@@H](C(=O)N2C[C@H](O)C[C@H]2C(=O)NCc2ccc(-c3scnc3C)cc2OCCN(C)C2CCN(C(=O)c3nc(N4CCc5cccc(C(=O)Nc6nc7ccccc7s6)c5C4)ccc3-c3cnn(CC4CCCCC4)c3C)CC2)C(C)C)on1` [I-266] yielded a Dmax of 50 to 75% and a DC50 of 100 to 500 nM.
With `Cc1ncsc1-c1ccc([C@H](C)NC(=O)[C@@H]2C[C@@H](O)CN2C(=O)C(c2cc(N3CC(CN4CCC(NC(=O)c5nc(N6CCc7cccc(C(=O)Nc8nc9ccccc9s8)c7C6)ccc5-c5cnn(CC6CCCCC6)c5C)CC4)C3)no2)C(C)C)cc1` (some centres unmarked) [I-239] the Dmax was less than 50%.
`Cc1ncsc1-c1ccc([C@H](C)NC(=O)[C@@H]2C[C@@H](O)CN2C(=O)[C@@H](c2cc(OC3CN(CCCS(=O)(=O)NC(=O)c4nc(N5CCc6cccc(C(=O)Nc7nc8ccccc8s7)c6C5)ccc4-c4cnn(CC5CCCCC5)c4C)C3)no2)C(C)C)cc1` [I-271] was tested, and the Dmax was greater than 75% and the DC50 was 10 to 100 nM.
